Experimental data as given in patent US20120088698A1, “WATER IN OIL EMULSION, METHOD FOR THE PRODUCTION THEREOF” (CLARIANT FINANCE (BVI) LIMITED, priority 2009, published 2012).
Read-outs that look alike come from different tables or passages of the source.

Tests used:
Skelotonema Costatum [1] = experiment: Ecotoxicology, Protocol ISO 10253; conditions: for EC50: 72 hrs
[2] = Biodegradability, OECD 306 test; conditions: OECD 306, 28 days
Skelotonema Costatum [3] = conditions: in vivo

Compound	EC50 (Skelotonema Costatum [1]) [µg/mL]	Degradation (biodegradability) [2] [%]	48 h NOEC (Artica Tonsa; 48 h) [mg/L]	48 h LC90 (Artica Tonsa; 48 h, first figure of LC90/100) [µg/mL]	48 h LC100 (Artica Tonsa; 48 h, second figure of LC90/100) [mg/L]	LC50 (Artica Tonsa; 48 hrs) [µg/mL]	72 h EC90 (Skelotonema Costatum [3]) [µg/mL]	NOEC@72 h (Skelotonema Costatum [3]) [mg/L]	LC5@10 days (Corophium Volulator; 10 days) [mg/kg]	NOEC @ 10 days (Corophium Volulator; in vivo) [mg/kg]	72 h EC90 (Skelotonema Costatum [1]; 72 h) [µg/mL]	NOEC@72 h (Skelotonema Costatum [1]; 72 h) [mg/L]	NOEC @ 10 days (Corophium Volulator; 10 days) [mg/kg]
CCCCCCCC/C=C\CCCCCCCCN1CC(C(=O)O)CC1=O.NCCO (centres unmarked) [OleylPyCOO-MEA, N-oleyl(pyrrolidine-2-one)-4-carboxylic acid/ethanol amine salt]	0.44	69	0.30	4.2	9.0	2.8	0.58	0.32	433	160			
N-oleyl(pyrroildine-2-one)-4-carboxylic acid/morpholine distillation residue salt [OleylPyCOO-AmixM]	1.6										3.0	0.56	524
